Experimental findings from ChEMBL document CHEMBL1201862, “PubChem BioAssay data set” (2004) are described below.

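Each compound was tested at five concentrations against cells in 96-well plates for 48 hours. Abbreviation: GI50, concentration required for 50% inhibition of growth.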 Activity calls are given as the source filed them. No stated cut-off is given here; in the data, active = GI50 up to about 1.1 µM and inactive = higher.

Common to all, as to assay: NCI anticancer screen, dose series, 48 h
The test system of assay [1] is SN12C.
The subject of assay [2] is EKVX.
For assay [3], the system named is OVCAR-8.
Assay [4] has as its system HL-60.
In assay [5] the test system is 786-0.
In assay [6] the test system is LXFL 529.
Assay [7] deals with UACC-62.
Assay [8] concerns SNB-19.
Assay [9] relates to Malme-3M.
In assay [10] the test system is HCT-116.
The subject of assay [11] is NCI-H460.
Assay [12] relates to CAKI-1.
The test system of assay [13] is NCI-H522.
Assay [14] concerns OVCAR-4.
The test system of assay [15] is HCC 2998.
In assay [16] the test system is MOLT-4.
Assay [17] deals with DMS-273.
Assay [18] relates to Hs-578T.
For assay [19], the system named is MCF7.
Assay [20] deals with PC-3.

For `CC(Oc1ccc2cc(C(=O)c3ccccc3)c(=O)oc2c1)C(=O)O` (centres undefined), the GI50 in assay [1], in assay [2], in [3], in [4], in [5] and in assay [6] was > 100 µM (inactive) throughout. Also, the GI50 in assay [7], in assay [8], in assay [9], in assay [10], in assay [11] and in assay [12] was > 100 µM (inactive) each time. In addition, the GI50 in [13], in assay [14], in assay [15] and in assay [16] was > 100 µM (inactive) each time.
On to `c1ccc(Nc2nnc(CSc3nc(-c4ccccc4)c(-c4ccccc4)[nH]3)s2)cc1`, for which the GI50 is 17.1 µM (inactive) in assay [1]; 19.4 µM (inactive) in assay [2]; 23 µM (inactive) in [3]; 13.2 µM (inactive) in [4]; 18.2 µM (inactive) in assay [5]; 20.1 µM (inactive) in [6]. Moreover, the GI50 in assay [17] was 16.8 µM (inactive); in assay [9], 19.2 µM (inactive); in assay [10] it was 17.2 µM (inactive); in assay [11], 12.4 µM (inactive); in assay [13], 17.2 µM (inactive); in [14], 27 µM (inactive). In assay [16], the GI50 is 10.1 µM (inactive).
Turning to `CC(C)(C)C#C[P+](c1ccccc1)(c1ccccc1)c1ccccc1`, the GI50 was 0.192 µM (active) in assay [1]; 0.566 µM (active) in assay [2]; 0.185 µM (active) in assay [3]; 0.057 µM (active) in assay [4]; 0.337 µM (active) in assay [5]; 0.0586 µM (active) in assay [6]. In addition, the GI50 in assay [7] was 0.297 µM (active); in assay [8] it was 0.274 µM (active); in assay [9], 0.349 µM (active); in assay [10] it was 0.177 µM (active); in assay [11] it was 0.152 µM (active); in [12] it was 0.804 µM (active). Besides, the GI50 in [13] was 0.15 µM (active); in assay [14] it was 0.211 µM (active); in assay [15], 0.293 µM (active); in assay [16] it was 0.197 µM (active).
As to `C[C@@H]1C(=O)CC2C(C)(C)CCC[C@]2(C)[C@@]12CC[C@]1(C=COC1)O2` (some centres undefined), the GI50 in assay [1] is 18.7 µM (inactive); in assay [2], 42.9 µM (inactive); in [3], 27.9 µM (inactive); in assay [4] it was 18.7 µM (inactive); in assay [5], 33.3 µM (inactive); in [17], 34.2 µM (inactive). Moreover, the GI50 in assay [7] was 35.4 µM (inactive); in assay [8], 61 µM (inactive); in assay [9], 27.8 µM (inactive); in [10], 30.2 µM (inactive); in [11], 32.8 µM (inactive); in [12], 64.3 µM (inactive). Besides, the GI50 is 19.2 µM (inactive) in assay [13], 43.8 µM (inactive) in [14], 38.1 µM (inactive) in assay [15] and 16 µM (inactive) in [16].
Take `Cn1nc(-c2ccccc2)c(C(=O)/C=C/c2ccc(F)cc2)c(N2CCCCC2)c1=O`: the GI50 is 8.39 µM (inactive) in assay [1]; 16.3 µM (inactive) in assay [2]; 5.81 µM (inactive) in assay [3]; 0.759 µM (active) in [4]; 4.62 µM (inactive) in assay [5]; 4.68 µM (inactive) in assay [6]. The GI50 in assay [17] is 4.03 µM (inactive); in assay [7] it was 6.27 µM (inactive); in assay [8] it was 13.2 µM (inactive); in [10], 3.31 µM (inactive); in assay [11] it was 4.83 µM (inactive); in [12] it was 8.75 µM (inactive). In addition, the results for the GI50 in [13] and in [16] were 5.9 µM (inactive) and 2.63 µM (inactive), respectively.
As to `CC(C)(C)c1ccc2c(c1)S(=O)(=O)Nc1ccc(Cl)cc1NS(=O)(=O)c1cc(C(C)(C)C)ccc1OCCOCCOCCO2`, the GI50 is 43.5 µM (inactive) in assay [1]; 79.6 µM (inactive) in assay [2]; 35 µM (inactive) in assay [3]; > 100 µM (inactive) in assay [4]; 87.3 µM (inactive) in assay [5]; 56.8 µM (inactive) in [17]. Also, the GI50 in [7] was 17.9 µM (inactive); in assay [8], 62.2 µM (inactive); in [9] it was 27.4 µM (inactive); in assay [10] it was 35.9 µM (inactive); in [11], 26 µM (inactive); in assay [12] it was 98.2 µM (inactive). Further, the GI50 was 5.69 µM (inactive) in assay [14], > 100 µM (inactive) in assay [15] and > 100 µM (inactive) in [16].
Take `CC(N)C(C)Cc1ccccc1` (centres undefined): the GI50 is 77.1 µM (inactive) in assay [18]; > 100 µM (inactive) in [1]; > 100 µM (inactive) in [2]; > 100 µM (inactive) in assay [3]; > 100 µM (inactive) in [4]; > 100 µM (inactive) in assay [5]. Besides, the GI50 in assay [19], in assay [20], in [7], in [8], in [9] and in [10] was > 100 µM (inactive) each time. Besides, the GI50 in assay [11], in assay [12], in assay [13], in assay [14], in [15] and in assay [16] was > 100 µM (inactive) throughout.
In the case of `c1cc(C2N3CCCN2CC3)ccn1` (centres undefined), the GI50 in assay [18] was 22.8 µM (inactive); in [1], 79.8 µM (inactive); in assay [2], > 100 µM (inactive); in [3] it was 53.8 µM (inactive); in assay [4], 40.2 µM (inactive); in assay [5], 56.2 µM (inactive). In addition, the GI50 in [19] was 37.8 µM (inactive); in [20] it was > 100 µM (inactive); in [7], > 100 µM (inactive); in assay [8], > 100 µM (inactive); in assay [9], 21.9 µM (inactive); in assay [10] it was 36.9 µM (inactive). In addition, the GI50 in assay [11] was 83.6 µM (inactive); in assay [12], > 100 µM (inactive); in [13], 4.85 µM (inactive); in [14], 86.7 µM (inactive); in assay [15], > 100 µM (inactive); in assay [16] it was 36.1 µM (inactive).
In the case of `Cc1cc(NCc2ccccc2)c2ccccc2[n+]1CCCCCCCCCC[n+]1c(C)cc(NCc2ccccc2)c2ccccc21.[O-][Cl+3]([O-])([O-])[O-].[O-][Cl+3]([O-])([O-])[O-]`, the GI50 was 0.65 µM (active) in assay [18]; 0.279 µM (active) in [1]; 1.19 µM (inactive) in [2]; 0.431 µM (active) in assay [3]; 0.265 µM (active) in [4]; 0.653 µM (active) in assay [5]. The GI50 in [19] was 0.318 µM (active); in [20], 0.458 µM (active); in assay [7], 0.31 µM (active); in assay [8], 0.252 µM (active); in assay [9], 4.06 µM (inactive); in assay [10], 0.324 µM (active). The GI50 in assay [11] is 0.228 µM (active); in [12], 1.44 µM (inactive); in [13], 19.5 µM (inactive); in assay [14], 1.3 µM (inactive); in assay [15] it was 0.562 µM (active); in assay [16], 0.423 µM (active).
